The nature of series [1]: Kinetic solubility of the compound. In kind it is physicochemical. To be noted: read-out: Kinetic_solubility.
A further series in a line: physchem. To be noted: FaSSIF.
Series [2] is described as follows: Intrinsic clearance in human microsomes. In kind it is ADME, Microsome.
A short description of series [3]: Intrinsic clearance in mouse microsomes. In kind it is ADME, Microsome.
Series [4] can be described thus: Intrinsic clearance in rat microsomes. The class given is ADME, Microsome.
Series [5] is described as follows: Stability of the compound in human plasma assessed as parent compound remaining after 4 hrs. In kind it is ADME, cell-free. Particulars: read-out: Stabilty.
Series [6] is described as follows: Stability of the compound in mouse plasma assessed as parent compound remaining after 4 hrs. In kind it is ADME, cell-free. To be noted: read-out: Stabilty.
Series [7] can be described thus: AUC(0 to 6 hrs) in rat at 10 mg/kg, po. Set-up: time < 6 hr, route oral, dose 10 mg/kg. To be noted: in vivo. The class given is ADME, organism-based.
Series [8] can be described thus: AUC(0 to 4 hrs) in rat at 0.2 mg/kg, iv. In kind it is ADME, organism-based. Set-up: time < 4 hr, route intravenous, dose 0.2 mg/kg. Particulars: in vivo.
Series [9] in a line: Cmax in rat at 10 mg/kg, po. In kind it is ADME, organism-based. More on the design: route oral, dose 10 mg/kg. To be noted: in vivo.
Series [10] is described as follows: Oral bioavailability in rat at 10 mg/kg. The class given is ADME, organism-based. To be noted: in vivo.
Series [11] can be described thus: Half life in rat at 10 mg/kg, po. In kind it is ADME, organism-based. Particulars: in vivo.
The nature of series [12]: Clearance in rat at 0.2 mg/kg, iv. To be noted: in vivo. The class given is ADME, organism-based.
Series [13] can be described thus: Volume of distribution at steady state in rat at 0.2 mg/kg, iv. Particulars: in vivo, read-out: Vdss. The class given is ADME, organism-based.

Values after ≈ are worked out from the molar mass of the structure shown.

One may read the solubility as how much of the substance goes into solution per volume. A low value points to little dissolved substance. As usually defined, the microsomal CLint is the rate of metabolic loss divided by the concentration. In general, AUC refers to concentration integrated over time. Read a high AUC as high exposure. What is called Cmax is the highest concentration seen after dosing. One may read the bioavailability as dose-corrected exposure relative to a reference, in per cent. A higher bioavailability goes with much systemic uptake. One may read the half-life as how long it takes for the measured level to halve. The low end stands for rapid decline, the high end for slow decline.

As to `Cn1cc(-c2nc3c(-c4ccc(CNC(=O)c5nc(C(C)(C)C)no5)c(F)c4)ccnc3[nH]2)cn1`, in series [1], the solubility kinetic came out at 1.7 µM (≈ 0.807 µg/mL). In the series “physchem”, this compound had a solubility of 2 µg/mL (≈ 4.21 µM).

Consider `Cc1nn(C(C)C)c(C)c1-c1nc2nccc(-c3ccc4c(c3)CCCC[C@H]4NC(=O)c3nc(C(C)(C)C)no3)c2[nH]1`, for which the results for the microsomal CLint in series [2], in [3] and in series [4] were 32 µL/min/mg, 75 µL/min/mg and 67 µL/min/mg, respectively. Moreover, the remaining at 4 h in series [5] and in series [6] was > 85% throughout. Also, the AUC in series [7] worked out at 3030 ng·h/mL; in [8], 79 ng·h/mL. The same compound yielded a Cmax in series [9] of 849 ng/mL. The compound further returned a bioavailability in series [10] of 77%. Moreover, the half-life in [11] is 1.93 h. Also, the CL in series [12] came out at 40.3 mL/min/kg. In addition, the Vd in [13] came out at 2.62 L/kg.

In the series “physchem”, `Cc1nn(C(C)C)c(C)c1-c1nc2c(-c3ccc4c(c3)CCC[C@H]4NC(=O)c3nc(C(C)(C)C)no3)ccnc2[nH]1` registered a solubility of 56 µg/mL (≈ 101 µM).

`Cn1cc(-c2nc3c(-c4ccc5c(c4)CCC[C@@H]5NC(=O)c4nc(C(C)(C)C)no4)ccnc3[nH]2)cn1` returned a solubility in “physchem” of 190 µg/mL (≈ 383 µM).

The compound `Cc1c(-c2nc3c(-c4ccc5c(c4)CCC[C@@H]5NC(=O)c4nc(C(C)(C)C)no4)ccnc3[nH]2)cnn1C(C)C` came in with a solubility in the series “physchem” of 28 µg/mL (≈ 52 µM).

`Cc1c(-c2nc3c(-c4ccc5c(c4)CCC[C@H]5NC(=O)c4nc(C(C)(C)C)no4)ccnc3[nH]2)cnn1C1CCOCC1` had a solubility in the series “physchem” of 7 µg/mL (≈ 12.1 µM).

`Cn1cc(-c2nc3c(-c4ccc(C5(NC(=O)c6nc(C(C)(C)C)no6)CC5)cc4)ccnc3[nH]2)cn1` yielded a solubility in the series “physchem” of 56 µg/mL (≈ 116 µM).

Regarding `CC(C)n1cc(-c2nc3c(-c4ccc5c(c4)CCC[C@@H]5NC(=O)c4nc(C(C)(C)C)no4)ccnc3[nH]2)cn1`, in “physchem”, the solubility is 25 µg/mL (≈ 47.7 µM).

Consider `CN1CCN(c2ccc(Nc3cc(-c4cccc(-n5ccc6cc(C7CC7)cc(F)c6c5=O)c4CO)cn(C)c3=O)nc2)CC1`, for which the solubility in “physchem” was 31 µg/mL (≈ 51.1 µM).

In the case of `Cc1nn(C2CCOCC2)cc1-c1nc2c(-c3ccc4c(c3)CCC[C@@H]4NC(=O)c3nc(C(C)(C)C)no3)ccnc2[nH]1`, the solubility in the series “physchem” was 33 µg/mL (≈ 56.8 µM).

Source of the values: ChEMBL document CHEMBL4819115, “Discovery of potent and selective reversible Bruton's tyrosine kinase inhibitors” (Bioorg Med Chem, 2021).
